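Growth conditions: 96-well plates. Treatment: test compound, 48 hours, 5 concentrations. Analysis: linear interpolation between bracketing concentrations; unreached endpoints set to highest concentration. TGI marks complete inhibition of growth.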
Columns and labels:
Assay in all cases: NCI anticancer screen, dose series, 48 h
NCI-H23 lung = system: NCI-H23 lung
NCI/ADR-RES ovarian = system: NCI/ADR-RES ovarian
CAKI-1 renal = system: CAKI-1 renal
SNB-19 CNS = system: SNB-19 CNS
OVCAR-8 ovarian = system: OVCAR-8 ovarian
SNB-75 CNS = system: SNB-75 CNS
A549 NSCLC = system: A549 NSCLC
COLO 205 colon = system: COLO 205 colon
HCT-116 colon = system: HCT-116 colon
OVCAR-4 ovarian = system: OVCAR-4 ovarian
SF-539 CNS = system: SF-539 CNS
MDA-MB-435 = system: MDA-MB-435
NCI-H460 lung = system: NCI-H460 lung
EKVX NSCLC = system: EKVX NSCLC
IGROV1 ovarian = system: IGROV1 ovarian
PC-3 prostate = system: PC-3 prostate
SN12C renal = system: SN12C renal
TK-10 renal = system: TK-10 renal
SF-295 CNS = system: SF-295 CNS
T-47D breast = system: T-47D breast
SK-MEL-2 melanoma = system: SK-MEL-2 melanoma
MCF7 breast = system: MCF7 breast
MDA-N = system: MDA-N
HOP-92 NSCLC = system: HOP-92 NSCLC
UACC-62 melanoma = system: UACC-62 melanoma
M14 melanoma = system: M14 melanoma
HL-60(TB) leukemia = system: HL-60(TB) leukemia
OVCAR-3 ovarian = system: OVCAR-3 ovarian
786-0 renal = system: 786-0 renal
ACHN renal = system: ACHN renal
HCT-15 colon = system: HCT-15 colon
SK-MEL-28 melanoma = system: SK-MEL-28 melanoma
HCC-2998 colon = system: HCC-2998 colon
MOLT-4 leukemia = system: MOLT-4 leukemia
UACC-257 melanoma = system: UACC-257 melanoma
HOP-62 NSCLC = system: HOP-62 NSCLC
MDA-MB-231 breast = system: MDA-MB-231 breast
LOX IMVI melanoma = system: LOX IMVI melanoma
HT29 colon = system: HT29 colon
SW-620 colon = system: SW-620 colon
OVCAR-5 ovarian = system: OVCAR-5 ovarian
UO-31 renal = system: UO-31 renal
KM12 colon = system: KM12 colon
BT-549 breast = system: BT-549 breast
DU-145 prostate = system: DU-145 prostate
SK-OV-3 ovarian = system: SK-OV-3 ovarian
U251 CNS = system: U251 CNS
NCI-H226 lung = system: NCI-H226 lung
SK-MEL-5 melanoma = system: SK-MEL-5 melanoma

Measured: TGI

O=c1[nH]c2ccccc2c(O)c1/C=N/C(=S)NCCc1ccccc1
> 100 µM: all assays above
